Experimental data as given in patent US8008296B2, “Histamine H3 receptor agents, preparation and therapeutic uses” (Eli Lilly and Company, priority 2005, dated 2011).

Biological target: T1, human histamine 3 receptor (H3R) (Homo sapiens, UniProt Q9Y5N1)
T1 construct: expressed in transfected cells; membranes
Assay: Histamine H3 Receptor Binding Assay (competitive inhibition SPA, [3H] α-methylhistamine, HEK293 H3R8 membranes)
From the text: The compounds of the present invention can readily be evaluated by using a competitive inhibition Scintillation Proximity Assay (SPA) based on a H3R binding assay using [3H] a methylhistamine as ligand. Stable cell lines, including but not limited to HEK can be transfected with cDNA coding for H3R to prepare membranes used for the binding assay. The technique is illustrated below (Preparation of Histamine Receptor Subtype Membranes) for the histamine receptor subtypes.
cDNA for the human histamine 3 receptor is cloned and expressed as described in (A. Preparation H1R membranes), above. Transfected cells are selected using G418 ([…]), grown, and tested for histamine binding by the SPA described above. For total binding, cells are assayed in a SPA reaction described above containing 50 mM Tris-HCL (assay buffer), pH 7.6, 1 mg wheat germ agglutinin SPA beads (Amersham Pharmacia Biotech, #RPNQ0001), and 1 nM (3H)-n-alpha-methylhistamine (NEN, NET1027) (total volume per well=200 μl). Thioperimide is added to determine non-specific binding. Several clones are selected as positive for binding, and a single clone (H3R8) is used to prepare membranes for binding studies described above. Five micrograms of protein is used per well in the SPA receptor-binding assay. […]

T1 sequence (Q9Y5N1 whole entry): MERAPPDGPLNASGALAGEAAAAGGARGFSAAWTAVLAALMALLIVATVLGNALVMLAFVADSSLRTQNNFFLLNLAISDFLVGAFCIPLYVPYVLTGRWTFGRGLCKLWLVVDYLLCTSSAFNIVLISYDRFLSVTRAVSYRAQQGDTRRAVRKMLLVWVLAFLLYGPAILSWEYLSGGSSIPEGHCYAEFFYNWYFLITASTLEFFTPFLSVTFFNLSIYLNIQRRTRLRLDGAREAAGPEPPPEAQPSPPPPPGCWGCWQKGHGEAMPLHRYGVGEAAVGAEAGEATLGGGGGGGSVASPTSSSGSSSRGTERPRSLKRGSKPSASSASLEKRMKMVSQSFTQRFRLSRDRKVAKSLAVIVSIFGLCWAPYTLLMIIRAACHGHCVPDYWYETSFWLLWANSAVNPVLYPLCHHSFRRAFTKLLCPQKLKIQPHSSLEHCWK

Row | SMILES | Ki [nM]
1 | CCCCNc1ccc(C(=O)N2CCCC2CN2CCCC2)cc1 (centres unmarked) | 21.6
2 | O=C(c1ccc(Sc2ccncn2)cc1)N1CCCC1CN1CCCC1 (centres unmarked) | 11.7
